The values below come from US20240254119A1 (THIRD HARMONIC BIO, INC., priority 2022, published 2024).

Each structure is given as a SMILES string. Read-outs that look alike come from different tables or passages of the source.

The nature of data set [1]: Three time point assay for plasma, brain and testes distribution after oral dosing. In kind it is in vivo, rat. To be noted: for Brain concentration / Kp testes/plasma / Plasma concentration / Testes concentration / Kp brain/plasma / concentration at 0.5 h / Kp at 0.5 h / concentration at 2 h / Kp at 2 h / concentration at 7 h / Kp at 7 h: rat, oral dosing; for concentration at 0.5 h / Kp at 0.5 h / concentration at 2 h / Kp at 2 h / concentration at 7 h / Kp at 7 h: male, SD, 10 mg/kg; for concentration at 0.5 h / Kp at 0.5 h: time point 0.5 h; for concentration at 7 h / Kp at 7 h: time point 7 h. Here is the method: Exemplary compounds were tested for distribution in plasma, brain and testes tissue following oral dosing of the compounds in rats. Procedures and results are described below.
Male SD Rats were group-housed (up to four animals/sex/cage) in polysulfone cages with certified aspen wood bedding during acclimation and study period.
Certified rodent diet and water was provided to all animals ad libitum, unless fasting for study procedures.
Appropriate amount of test article was accurately weighed and mixed with an appropriate volume of vehicle to get a clear solution or a uniform suspension; vortexing or sonication in water bath may also be need. Animals were dosed within four hours after the formulation is prepared.
For PO dosing, the dose formulation was administered via oral gavage following facility SOPs. The dose volume was determined by the animals' body weight collected on the morning of dosing day. The dose was 10 mg/kg.
Each blood collection (about 1 mL per time point at one or more of 0.5 h, 2 h, 3 h, 5.3 h, and 7 h) was performed from jugular vein or other suitable site of each animal into pre-chilled commercial EDTA-K2 tubes and placed on wet ice until centrifugation.
Blood samples were processed for plasma by centrifugation at approximately 4° C., 3,200 g for 10 min. Plasma was collected respectively and transferred into pre-labeled 96 well plate or polypropylene tubes, quick frozen over dry ice and kept at −60° C. or lower until LC-MS/MS analysis.
Rat brain was perfused with PBS to remove blood before harvest.
After perfusion, brain and testis were homogenized using homogenizing buffer (15 mM PBS (pH7.4):MeOH=2:1) at the ratio of 1:9 (1 g tissue with 9 mL buffer, the dilution ratio is 10). The brain homogenate was kept at −60° C. or lower until LC-MS/MS analysis. General sample processing procedure (brain homogenate & testis homogenate) using 96-well plate: • 1). An aliquot of 40 μL unknown sample, calibration standard, quality control and dilution quality control (if have), single blank, and double blank sample was added to the 96-well plate respectively; • 2). Each sample (except the double blank) was quenched with 400 μL of IS1 respectively (double blank sample was quenched with 400 μL of I), and then the mixture was vortex-mixed for 10 min at 800 rpm and centrifuged for 15 min at 3220×g, 4° C.; • 3). An aliquot of 50 μL supernatant was transferred to another clean 96-well plate and centrifuged for 5 min at 3220×g, 4° C., then the supernatant was directly injected for LC-MS/MS analysis.
• 1. A LC-MS/MS method for the quantitative determination of test compound in biological matrix was developed under Non-GLP compliance. • 2. A calibration curve with at least 6 non-zero calibration standards was applied for the method including LLOQ. • 3. A set of QCs consisting of low, middle, and high concentrations were applied for the method. • 4. N in 1 cassette LC-MS/MS method was developed for samples coming from different studies and the interference among all cassette analytes was evaluated during the method development. • 5. Cassette administration assay was performed if the mass difference (Δmass) among different analytes was more than 4 Da. In this case, interference evaluation was not necessary.
• 1. If sample number within a batch was ≤12, at least one set of standard curve separated with two parts through begin and end of the sequence, was included in the run, and QCs were not required. The recommended injection order was C8, C6, C4, C2, study samples, C7, C5, C3, C1. • 2. If sample number within a batch was >12, one standard curve and two sets of QCs with low, middle and high concentrations were applied for bioanalysis. Meanwhile, QCs number should be more than 5% of study sample number. • 3. Samples with the same types of matrix in different studies were quantified in one analysis run by using the developed N in 1 cassette LC-MS/MS method. • 4. […]

For a further data set, the system named is Caco-2 cells. In words: Caco-2 permeability assay. The class given is in vitro ADME. The conditions noted are these: for Caco-2: Papp A-B: Caco-2, apical to basolateral. Here is the method:
Exemplary compounds were tested for cell permeability in Caco-2, MDCKII-MDR1 and MDCKII-BCRP cell lines with efflux transporter engagement inferred from the efflux ratios determined. Procedures and results are described below. […] This feature of certain compounds is in part due to efflux transporter engagement. See, for instance, exemplary such compounds included in data tables below.
The transport buffer in the study was HBSS with 10.0 mM HEPES at pH 7.40±0.05. Test compound was tested at 2.00 μM bi-directionally in duplicate. Digoxin was tested at 10.0 μM bi-directionally in duplicate, while nadolol and metoprolol were tested at 2.00 μM in A to B direction in duplicate. Final DMSO concentration was adjusted to less than 1%. The plate was incubated for 2 hours in CO2 incubator at 37±1° C., with 5% CO2 at saturated humidity without shaking. And all samples after mixed with acetonitrile containing internal standard were centrifuged at 3200×g for 10 min. For nadolol and metoprolol, 200 μL supernatant solution was diluted with 600 μL ultra-pure water for LC-MS/MS analysis. For digoxin and test compounds, 200 μL supernatant solution was diluted with 200 μL ultra-pure water for LC-MS/MS analysis. Concentrations of test and control compounds in starting solution, donor solution, and receiver solution were quantified by LC-MS/MS methodologies, using peak area ratio of analyte/internal standard.
After transport assay, lucifer yellow rejection assay was applied to determine the Caco-2 cell monolayer integrity.
[…] And permeation of lucifer yellow through the monolayer was measured to evaluate the cellular integrity.
The apparent permeability coefficient Papp (cm/s) was calculated using the equation: Papp=(dCr/dt)×Vr/(A×C0), where dCr/dt is the cumulative concentration of compound in the receiver chamber as a function of time (μM/s); Vr is the solution volume in the receiver chamber (0.075 mL on the apical side, 0.25 mL on the basolateral side); A is the surface area for the transport, i.e. 0.0804 cm^2 for the area of the monolayer; C0 is the initial concentration in the donor chamber (μM).
The efflux ratio was calculated using the equation: Efflux Ratio=Papp (BA)/Papp(AB).
Percent recovery was calculated using the equation: % Solution Recovery=100×[(Vr×Cr)+(Vd×Cd)]/(Vd×C0), where Vd is the volume in the donor chambers (0.075 mL on the apical side, 0.25 mL on the basolateral side); Cd and Cr are the final concentrations of transport compound in donor and receiver chambers, respectively.
A general note: Caco-2 cells form a polarised layer with tight junctions and transporters.

Setting [2] is: brain, read-out: Brain concentration.
[3] abbreviates: brain, read-out: Kp brain/plasma.
[4] abbreviates: plasma, read-out: Plasma concentration.
Where [5] appears, read: testes, read-out: Kp testes/plasma.
Setting [6] is: testes, read-out: Testes concentration.

Consider `Cc1ccc(-c2noc(C(C)NS(C)(=O)=O)n2)cc1NC(=O)c1cnc2ccccn12` (single isomer, unassigned) [Compound I-238], for which, in data set [1] (time point 2 h), the Brain concentration worked out at 0 ng/g, the Kp testes/plasma turned out to be 0.17, the Plasma concentration worked out at 791 ng/mL and the Testes concentration is 131 ng/g.

Consider `CCCNc1ccn2c(C(=O)Nc3cc(-c4noc([C@H]5C[C@@H]5F)n4)ccc3C)cnc2c1` [Compound I-304], for which, in the data set with Caco-2 cells, the “Caco-2: Efflux Ratio” value stood at 0.92 and the “Caco-2: Papp A-B” value is recorded as 4.31 10^−6 cm/s.

Take `Cc1ccc(-c2noc(C3CCN3)n2)cc1NC(=O)c1cnc2ccccn12` (racemic) [Compound I-394]: in the data set with Caco-2 cells, the “Caco-2: Efflux Ratio” value was 3.48 and the “Caco-2: Papp A-B” value was 6.31 10^−6 cm/s.

For the compound `Cc1ccc(-c2noc(C(C)O)n2)cc1NC(=O)c1cnc2ccccn12` (racemic) [Compound I-364], in the data set with Caco-2 cells, the “Caco-2: Efflux Ratio” value is reported as 3.09 and the “Caco-2: Papp A-B” value was 8.39 10^−6 cm/s.

For the compound `Cc1ccc(-c2noc(C3CN(C(=O)CO)C3)n2)cc1NC(=O)c1cnc2ccccn12` [Compound I-287], in the data set on Caco-2 cells, the “Caco-2: Efflux Ratio” value is recorded as 135 and the “Caco-2: Papp A-B” value was 0.13 10^−6 cm/s.

Regarding `Cc1cc(C)cc(Nc2ccc3ncc(C(=O)Nc4cc(-c5noc([C@H]6C[C@@H]6F)n5)ccc4C)n3c2)c1` [Compound I-299], in data set [1] (time point 2 h), the Brain concentration is 101 ng/g, the Kp brain/plasma was found to be 0.47, the Kp testes/plasma worked out at 0.92 and the Plasma concentration turned out to be 216 ng/mL. In data set [1] (time point 2 h), this compound showed a Testes concentration of 198 ng/g.

On to `Cc1ccc(-c2noc(C3CC(F)C3)n2)cc1NC(=O)c1cnc2ccccn12` (stereo not shown) [Compound I-381], for which, in the data set on Caco-2 cells, the “Caco-2: Efflux Ratio” value is on record as 0.97 and the “Caco-2: Papp A-B” value is 17.1 10^−6 cm/s.

`Cc1ccc(-c2noc([C@H]3C[C@@H]3F)n2)cc1NC(=O)c1cnc2ccc(F)cn12` [Compound I-288]: in the data set on Caco-2 cells, the “Caco-2: Efflux Ratio” value turned out to be 0.56 and the “Caco-2: Papp A-B” value is 17.4 10^−6 cm/s.

In the case of `Cc1ccc(-c2noc([C@H]3CCC(=O)N3)n2)cc1NC(=O)c1cnc2ccccn12` (racemic) [Compound I-327], in the data set with Caco-2 cells, the “Caco-2: Efflux Ratio” value was 102 and the “Caco-2: Papp A-B” value is 0.27 10^−6 cm/s.

In data set [1] (time point 2 h), `Cc1ccc(-c2noc(C3CCS(=O)(=O)N3)n2)cc1NC(=O)c1cnc2ccccn12` (racemic) [Compound I-330] showed a Brain concentration of 0 ng/g, a Kp testes/plasma of 0.86, a Plasma concentration of 117 ng/mL and a Testes concentration of 100 ng/g.

In data set [1] (time point 2 h), `O=C(Nc1cc(-c2noc([C@H]3C[C@@H]3F)n2)ccc1Br)c1cnc2ccccn12` [Compound I-340] displayed a Brain concentration of 3660 ng/g, a Kp brain/plasma of 1.64, a Kp testes/plasma of 1.35 and a Plasma concentration of 2230 ng/mL. Besides, the Testes concentration in data set [1] (time point 2 h) came to 3010 ng/g.

For `Cc1ccc(-c2noc([C@H]3C[C@@H]3F)n2)cc1NC(=O)c1cnc2cc(COCC(C)(C)O)ccn12` [Compound I-71, N-[5-[5-[(1R,2S)-2-fluorocyclopropyl]-1,2,4-oxadiazol-3-yl]-2-methyl-phenyl]-7-[(2-hydroxy-2-methyl-propoxy)methyl]imidazo[1,2-a]pyridine-3-carboxamide], the concentration at 0.5 h worked out at 91.8 ng/g in data set [1] (setting [2]), 1810 ng/mL in data set [1] (setting [4]) and 166 ng/g in data set [1] (setting [6]). The Kp at 0.5 h in data set [1] (setting [3]) came out at 0.05; in data set [1] (setting [5]), 0.09. The concentration at 2 h in data set [1] (brain, time point 2 h, read-out: Brain concentration) worked out at 169 ng/g; in data set [1] (plasma, time point 2 h, read-out: Plasma concentration), 3420 ng/mL; in data set [1] (testes, time point 2 h, read-out: Testes concentration), 653 ng/g. The Kp at 2 h in data set [1] (brain, time point 2 h, read-out: Kp brain/plasma) amounted to 0.05; in data set [1] (testes, time point 2 h, read-out: Kp testes/plasma), 0.19. Further, the concentration at 7 h in data set [1] (setting [2]) stood at 126 ng/g; in data set [1] (setting [4]), 4110 ng/mL; in data set [1] (setting [6]), 739 ng/g. In addition, the Kp at 7 h in data set [1] (setting [3]) was 0.03; in data set [1] (setting [5]) it was 0.18. In addition, in data set [1] (result in words), the “brain penetration as indicated by Kp (Cbrain/Cplasma)” value is “do not significantly penetrate the brain or minimally penetrate the brain”.

Turning to `COc1ccn2c(C(=O)Nc3cc(-c4noc(CC(O)C(F)F)n4)ccc3C)cnc2c1` (single isomer, unassigned) [Compound I-76], in data set [1] (time point 3 h), the Brain concentration turned out to be 55.9 ng/g, the Kp brain/plasma came to 0.09, the Kp testes/plasma is 0.41 and the Plasma concentration was determined as 598 ng/mL. In data set [1] (time point 3 h), the Testes concentration is given as 246 ng/g.

In data set [1] (time point 2 h), `Cc1ccc(-c2noc(CC(=O)O)n2)cc1NC(=O)c1cnc2ccccn12` [Compound I-335] yielded a Brain concentration of 0 ng/g, a Plasma concentration of 16.7 ng/mL and a Testes concentration of 0 ng/g.

Consider `Cc1ccc(-c2noc([C@H]3C[C@@H]3F)n2)cc1NC(=O)c1cnc2cc(N3CCC3)ccn12` [Compound I-295], for which, in data set [1] (time point 2 h), the Brain concentration was determined as 377 ng/g, the Kp brain/plasma is listed as 0.18, the Kp testes/plasma was found to be 0.49 and the Plasma concentration turned out to be 2080 ng/mL. The compound also registered a Testes concentration in data set [1] (time point 2 h) of 1020 ng/g.
